From patent US4486411A, “Beta-lactamase inhibiting 6-beta-sulfonyloxypenicillanic acid derivatives” (Pfizer Inc., priority 1981, dated 1984)
“And” between values parts separate entries of the source, which are not always exact repeats. Identical values can stand only once. Like-named read-outs stand apart in the source and are kept apart here.

Columns and labels:
[1] = target: Enterobacter cloacae 67B009 beta-lactamase (Enterobacter cloacae, UniProt P05364); assay: Inhibition of cell free beta-lactamase (beta-lactam hydrolysis); assay type: biochemical; settings: pH 6.5, 37° C.; for inhibition at 66 µM: inhibitor 66 μM; for inhibition at 16.5 µM: inhibitor 16.5 μM
Experimental: (§1) The compounds of the present invention are also evaluated in vitro by their ability to inhibit the hydrolysis of certain beta-lactam antibiotics by beta-lactamase enzymes. The hydrolysis of ampicillin and penicillin G was determined by the microiodometric method of Novick [Biochem. J. 83, 236 (1962)].
(§2) Cephaloridine hydrolysis was measured by following the decrease in ultraviolet absorbance at 255 nm [O'Callaghan et al., Antimicrob. Agents Chemother. 1968, pp. 57-63 (1969)]. Conditions for both assays were idential: 0.5 M potassium phosphate, pH 6.5 and 37° C. Reactions were initiated by the addition of the cell-free beta-lactamase, except in the case of preincubation experiments in which the inhibitor and enzyme were incubated together in the assay mixture for 10 minutes before initiation of the reaction by addition of substrate. With the cell-free extracts of Staphylococcus aureus, Escherichia coli, Klebsiella pneumoniae and Pseudomonas aeruginosa, the substrate was ampicillin at 33 micro M (13 microg./ml.). Typical specific activities of the beta-lactamase preparations were, respectively, 6,019, 88,970, 260 and 76 micromol/hr. per mg. of protein.
(§3) Cell-free extracts were prepared by sonic treatment (using three 30-s bursts at 4° C. except for S. aureus, which was broken with a French press) of cultures grown in brain heart infusion on a rotary shaker incubator. For the S. aureus, P. aeruginosa, and E. cloacae strains, de novo synthesis of beta-lactamase was induced by growing a log-phase culture in the presence of a sublethal concentration of penicillin G at 100, 1,000, and 300 microg./ml, respectively, for 2.5 hr.

[2] = target: T1, Staphylococcus aureus 01A400 beta-lactamase (Staphylococcus aureus, UniProt P00807); assay: as above; assay type: biochemical; settings: pH 6.5, 37° C.; for % Inhibition Beta-Lactam Hydrolysis: listed as R = C6 H5, n = 0
T1 construct: Cell-free extracts were prepared by sonic treatment; endogenous in cells; host or cells: Staphylococcus aureus 01A400, penicillin G-induced culture, cell-free extract (French press)
Experimental: as §1, §2, §3

[3] = system: Enterobacter cloacae; assay: MIC, brain heart infusion agar dilution; assay type: cell-based; settings: for MIC with Ampicillin / Response with Ampicillin: 1:1 mixture with ampicillin; for MIC: Enterobacter cloacae, 18 h, alone, Table II gives two separate tests
Experimental: (§4) The procedure which is followed is the one recommended by the International Collaborative Study on Antibiotic Sensitivity Testing [Ericcson and Sherris, Acta. Pathologica et Microbiologia Scandinav, Supp. 217, Sections A and B: 64-68 (1971)], and employs brain heart infusion (BHI) agar and the inocula replicating device. Overnight growth tubes are diluted 100 fold for use as the standard inoculum (20,000-10,000 cells in approximately 0.002 ml. are placed on the agar surface; 20 ml. of BHI agar/dish). Twelve 2 fold dilutions of the test compound are employed, with initial concentration of the test drug being 200 mcg./ml. Single colonies are disregarded when reading plates after 18 hrs. at 37° C. The susceptibility (MIC) of the test organism is accepted as the lowest concentration of compound capable of producing complete inhibition of growth as judged by the naked eye. The manner in which the said compounds of the formula I increase the effectiveness of a beta-lactam antibiotic can be appreciated by reference to experiments in which the MIC of a given antibiotic alone, and a compound of the formula I alone, are measured. These MIC's are then compared with the MIC values obtained with a combination of the given antibiotic and the compound of the formula I wherein R^1 is hydrogen. […] The MIC values of combinations are measured using the method described by Barry and Sabath in "Manual of Clinical Microbiology", edited by Lenette, Spaulding and Truant, 2nd Edition, 1974, American Society for Microbiology.
(§5) Results of experiments illustrating that compounds of the formula II enhance the effectiveness of various beta-lactam antibiotics are reported in Tables I and II. […] It is obvious that the combination of compounds of the formula II with beta-lactam antibiotics will show synergistic activity against other bacterial strains, including some freshly isolated in the clinics. Determination of this activity is a matter of routine application of this type of testing.

[4] = system: Escherichia coli 129*; assay: MIC, brain heart infusion agar dilution; assay type: cell-based; settings: for MIC with Ampicillin: 1:1 mixture with ampicillin; for MIC: Escherichia coli, 18 h, read-out: MIC Alone
Experimental: as §4, §5

[5] = system: Escherichia coli 2*; assay: MIC, brain heart infusion agar dilution; assay type: cell-based; settings: for MIC with Cefazolin: 1:1 mixture with cefazolin; for MIC: Escherichia coli, 18 h, read-out: MIC Alone
Experimental: as §4, §5

[6] = system: Escherichia coli 266; assay: MIC, brain heart infusion agar dilution; assay type: cell-based; settings: for MIC: Escherichia coli, 266, 18 h, alone, Table II gives two separate tests
Experimental: as §4, §5

[7] = system: Klebsiella pneumonia; assay: MIC, brain heart infusion agar dilution; assay type: cell-based; settings: for MIC with Ampicillin / Response with Ampicillin: 1:1 mixture with ampicillin; for MIC with Cefazolin / Response with Cefazolin: 1:1 mixture with cefazolin; for MIC: Klebsiella pneumoniae, 18 h, alone, Table II gives two separate tests
Experimental: as §4, §5

[8] = system: Proteus morgani; assay: MIC, brain heart infusion agar dilution; assay type: cell-based; settings: for MIC with Ampicillin: 1:1 mixture with ampicillin; for MIC with Cefazolin / Response with Cefazolin: 1:1 mixture with cefazolin; for MIC: 18 h, alone, Table II gives two separate tests
Experimental: as §4, §5

[9] = system: Pseudomonas aeruginosa; assay: MIC, brain heart infusion agar dilution; assay type: cell-based; settings: for MIC with Ampicillin: 1:1 mixture with ampicillin; for MIC with Cefazolin: 1:1 mixture with cefazolin; for MIC: Pseudomonas aeruginosa, 18 h, alone, Table II gives two separate tests
Experimental: as §4, §5

[10] = system: Serratia marcescens; assay: MIC, brain heart infusion agar dilution; assay type: cell-based; settings: for MIC: Serratia marcescens, 18 h, alone, Table II gives two separate tests
Experimental: as §4, §5

[11] = system: Staphylococcus aureus 400*; assay: MIC, brain heart infusion agar dilution; assay type: cell-based; settings: resistant variant
Experimental: as §4, §5

[12] = system: Staphylococcus aureus 5; assay: MIC, brain heart infusion agar dilution; assay type: cell-based; settings: for MIC with Ampicillin: 1:1 mixture with ampicillin; for MIC: 18 hrs. at 37° C., Table II gives two separate tests
Experimental: as §4, §5

[13] = system: Escherichia coli 51A129 beta-lactamase; assay: Inhibition of cell free beta-lactamase (beta-lactam hydrolysis); assay type: biochemical; settings: Ampicillin 33 μM, pH 6.5, 37° C.
Experimental: as §1, §2, §3

[14] = system: Klebsiella pneumoniae 53A129 beta-lactamase; assay: as above; assay type: biochemical; settings: Ampicillin 33 μM, pH 6.5, 37° C.
Experimental: as §1, §2, §3

[15] = target: T2, Pseudomonas aeruginosa 52A104 beta-lactamase (Pseudomonas aeruginosa, UniProt P24735); assay: as above; assay type: biochemical; settings: pH 6.5, 37° C.
T2 construct: cell-free sonicate of penicillin G-induced culture
Experimental: as §1, §2, §3

[16] = pH 6.5, Ampicillin 33 μM, inhibitor 66 μM
[17] = 1:1 mixture with cefazolin, resistant variant
[18] = 1:1 mixture with ampicillin, resistant variant
[19] = Staphylococcus aureus, 5, alone, read-out: MIC Alone

T1 sequence (P00807 25-281): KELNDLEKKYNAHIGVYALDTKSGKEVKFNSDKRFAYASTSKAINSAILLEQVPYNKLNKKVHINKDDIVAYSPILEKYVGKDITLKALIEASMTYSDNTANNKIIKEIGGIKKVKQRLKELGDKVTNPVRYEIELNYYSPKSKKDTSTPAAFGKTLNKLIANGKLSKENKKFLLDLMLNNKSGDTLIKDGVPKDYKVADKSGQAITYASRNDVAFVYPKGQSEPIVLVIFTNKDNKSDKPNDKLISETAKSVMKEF
Sequence of Enterobacter cloacae 67B009 beta-lactamase (P05364 21-381): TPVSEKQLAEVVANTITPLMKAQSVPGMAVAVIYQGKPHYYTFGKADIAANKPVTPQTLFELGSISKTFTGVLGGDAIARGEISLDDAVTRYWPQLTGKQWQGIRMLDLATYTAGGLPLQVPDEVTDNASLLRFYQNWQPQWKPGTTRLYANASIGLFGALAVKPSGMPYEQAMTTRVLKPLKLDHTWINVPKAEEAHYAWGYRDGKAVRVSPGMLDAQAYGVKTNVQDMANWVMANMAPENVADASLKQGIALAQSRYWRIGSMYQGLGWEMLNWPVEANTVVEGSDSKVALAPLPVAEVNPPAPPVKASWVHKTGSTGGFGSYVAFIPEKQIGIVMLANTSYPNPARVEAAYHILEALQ
T2 sequence (P24735 27-397): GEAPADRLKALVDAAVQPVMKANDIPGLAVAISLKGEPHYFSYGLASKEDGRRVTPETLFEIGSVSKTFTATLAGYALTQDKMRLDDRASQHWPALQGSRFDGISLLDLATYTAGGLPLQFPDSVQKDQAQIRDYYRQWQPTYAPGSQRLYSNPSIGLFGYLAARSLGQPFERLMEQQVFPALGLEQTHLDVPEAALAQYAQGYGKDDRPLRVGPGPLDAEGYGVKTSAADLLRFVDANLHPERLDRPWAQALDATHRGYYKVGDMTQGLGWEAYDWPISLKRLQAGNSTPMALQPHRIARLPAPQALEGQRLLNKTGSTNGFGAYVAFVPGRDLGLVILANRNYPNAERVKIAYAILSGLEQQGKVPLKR

Compound: CC1(C)[C@H](C(=O)O)N2C(=O)[C@@H](OS(=O)(=O)Cc3ccccc3)[C@H]2S1(=O)=O [R = C6 H5, n = 2, Sodium 6-beta-(alpha-Toluene-sulfonyloxy)penicillanate Sulfone]
- inhibition at 66 µM ([1]; pH 6.5, Penicillin G 33 μM): 0%
- inhibition at 66 µM [2, 16]: 36.2%

Compound: CC1(C)S[C@@H]2[C@H](OS(=O)(=O)Cc3ccccc3)C(=O)N2[C@H]1C(=O)O [Sodium 6-Beta-(Alpha-Toluenesulfonyloxy)penicillanate]
- MIC with Ampicillin [3]: 100 µg/mL
- Response with Ampicillin [3]: Synergy
- MIC with Cefazolin ([3]; 1:1 mixture with cefazolin): 100 µg/mL
- Response with Cefazolin ([3]; 1:1 mixture with cefazolin): Synergy
- MIC [3]: > 200 µg/mL
- MIC with Ampicillin ([4]; resistant variant): > 100 µg/mL
- MIC with Cefazolin [4, 17]: 100 µg/mL and 50 µg/mL
- MIC [4]: > 200 µg/mL
- MIC with Ampicillin [5, 18]: > 100 µg/mL
- MIC with Cefazolin ([5]; resistant variant): 12.5 µg/mL and 6.25 µg/mL
- MIC [5]: > 200 µg/mL
- MIC with Ampicillin ([6]; 1:1 mixture with ampicillin): 3.12 µg/mL and 1.56 µg/mL
- MIC [6]: > 200 µg/mL
- MIC with Ampicillin [7]: > 100 µg/mL
- Response with Ampicillin [7]: Antagonism
- MIC with Cefazolin [7]: 0.78 µg/mL
- Response with Cefazolin [7]: Additive
- MIC [7]: > 200 µg/mL
- MIC with Ampicillin [8]: 3.12 µg/mL
- MIC with Cefazolin [8]: 50 µg/mL
- Response with Cefazolin [8]: Synergy
- MIC [8]: > 200 µg/mL
- MIC with Ampicillin [9]: > 100 µg/mL
- MIC with Cefazolin [9]: > 100 µg/mL
- MIC [9]: > 200 µg/mL
- MIC with Cefazolin ([10]; 1:1 mixture with cefazolin): > 100 µg/mL
- MIC [10]: > 200 µg/mL
- Response with Ampicillin ([11]; 1:1 mixture with ampicillin): Additive
- MIC with Ampicillin [12]: ≤ 0.2 µg/mL
- MIC ([12]; Staphylococcus aureus, 5, 18 h, read-out: MIC Alone, alone): 6.25 µg/mL
- MIC [12, 19]: 100 µg/mL
- inhibition at 16.5 µM ([1]; pH 6.5, Cephalexin 33 μM): 100%
- inhibition at 16.5 µM ([1]; pH 6.5, Cephaloridine 4 μM): 100%
- inhibition at 4 µM ([1]; pH 6.5, Cephaloridine 33 μM, inhibitor 4 μM): 93.7%
- inhibition at 16.5 µM ([1]; pH 6.5, Cephaloridine 33 μM): 98.3%
- inhibition at 16.5 µM ([1]; pH 6.5, Penicillin G 33 μM): 96%
- inhibition at 66 µM ([1]; pH 6.5, Penicillin G 33 μM): 96%
- % Inhibition Beta-Lactam Hydrolysis ([13]; inhibitor 16.5 μM): 14.0%
- % Inhibition Beta-Lactam Hydrolysis ([13]; inhibitor 66 μM): 15.8%
- % Inhibition Beta-Lactam Hydrolysis ([14]; inhibitor 16.5 μM): 3.0%
- % Inhibition Beta-Lactam Hydrolysis ([14]; inhibitor 66 μM): 0%
- inhibition at 16.5 µM ([15]; Cephaloridine 16.5 μM, inhibitor 16.5 μM): 92.6%
- inhibition at 66 µM ([15]; Penicillin G 33 μM, inhibitor 66 μM): 100%
- % Inhibition Beta-Lactam Hydrolysis ([2]; Ampicillin 33 μM, inhibitor 16.5 μM): 40.3% and 78% and 63.3%
- % Inhibition Beta-Lactam Hydrolysis ([2]; Ampicillin 33 μM, inhibitor 66 μM): 91.4% and 91%
- inhibition at 66 µM [2, 16]: 85%
- inhibition at 66 µM ([2]; pH 6.5, Preincubation experiment (10 minutes), Ampicillin 33 μM, inhibitor 66 μM): 87.2%

Compound: CC1(C)S[C@@H]2[C@H](OS(C)(=O)=O)C(=O)N2[C@H]1C(=O)O [Sodium Methanesulfonyloxypenicillanate, Sodium 6-beta-(Methanesulfonyloxy)penicillanate]
- MIC with Ampicillin [3]: 100 µg/mL
- Response with Ampicillin [3]: Synergy
- MIC with Cefazolin ([3]; 1:1 mixture with cefazolin): > 100 µg/mL
- MIC [3]: > 200 µg/mL
- MIC with Ampicillin ([4]; resistant variant): > 100 µg/mL
- MIC with Cefazolin [4, 17]: 50 µg/mL
- Response with Cefazolin [4, 17]: Antagonism
- MIC [4]: > 200 µg/mL
- MIC with Ampicillin [5, 18]: 100 µg/mL
- Response with Ampicillin [5, 18]: Additive
- MIC with Cefazolin ([5]; resistant variant): 6.25 µg/mL
- MIC [5]: > 200 µg/mL
- MIC with Ampicillin ([6]; 1:1 mixture with ampicillin): 3.12 µg/mL
- Response with Ampicillin ([6]; 1:1 mixture with ampicillin): Antagonism
- MIC [6]: > 200 µg/mL
- MIC with Ampicillin [7]: 100 µg/mL
- Response with Ampicillin [7]: Antagonism
- MIC with Cefazolin [7]: 1.56 µg/mL
- Response with Cefazolin [7]: No effect
- MIC [7]: > 200 µg/mL
- MIC with Ampicillin [8]: 1.56 µg/mL
- MIC with Cefazolin [8]: 25 µg/mL
- Response with Cefazolin [8]: Synergy
- MIC [8]: > 200 µg/mL
- MIC with Ampicillin [9]: > 100 µg/mL
- MIC with Cefazolin [9]: > 100 µg/mL
- MIC [9]: > 200 µg/mL
- MIC with Ampicillin ([10]; 1:1 mixture with ampicillin): 25 µg/mL
- Response with Ampicillin ([10]; 1:1 mixture with ampicillin): Antagonism
- MIC with Cefazolin ([10]; 1:1 mixture with cefazolin): 100 µg/mL
- Response with Cefazolin ([10]; 1:1 mixture with cefazolin): Synergy
- MIC [10]: > 200 µg/mL
- MIC with Ampicillin ([11]; 1:1 mixture with ampicillin): 3.12 µg/mL
- Response with Ampicillin ([11]; 1:1 mixture with ampicillin): Additive
- MIC with Cefazolin ([11]; 1:1 mixture with cefazolin): ≥ 0.2 µg/mL
- Response with Cefazolin ([11]; 1:1 mixture with cefazolin): Synergy
- MIC ([11]; Staphylococcus aureus, 18 h, read-out: MIC Alone, alone, Table II gives two separate tests): 6.25 µg/mL
- MIC with Ampicillin [12]: ≤ 0.2 µg/mL
- MIC [12, 19]: 12.5 µg/mL
- inhibition at 66 µM ([1]; pH 6.5, Penicillin G 33 μM): 66.7%
- % Inhibition Beta-Lactam Hydrolysis ([13]; inhibitor 66 μM): 4.4%
- % Inhibition Beta-Lactam Hydrolysis ([14]; inhibitor 16.5 μM): 0%
- inhibition at 16.5 µM ([2]; pH 6.5, Ampicillin 33 μM, inhibitor 16.5 μM): 100%
- inhibition at 66 µM [2, 16]: 100%
